Legend:
Format in all cases: biochemical
DiAcpS [1] = molecular target: T1, DiAcpS (Dictyostelium discoideum, UniProt Q552R4); experiment: gel-based radiolabel transfer to apo-ACP, phosphorimager; conditions: labelled compound; 5-45 uM; 20 uM enzyme; 54 uM mycobacterial ACP Rv1344; 12.5 mM MgCl2, Tris-Cl pH 8.0, 30 C (gel-binding assay); only kcat/Km in text
T1 construct: gene DDB_G0275923; full gene (2 exons) in pET28a, N-terminal His6 tag, E. coli BL21(DE3); expected 20 kDa, runs at about 27 kDa
T1 sequence (Q552R4 entry or part of it): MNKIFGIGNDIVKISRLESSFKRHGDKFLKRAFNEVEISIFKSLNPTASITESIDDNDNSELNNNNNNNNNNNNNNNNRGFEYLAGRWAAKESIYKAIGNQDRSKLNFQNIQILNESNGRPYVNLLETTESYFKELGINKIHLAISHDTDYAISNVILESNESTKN

DiSfp [2] = molecular target: T2, DiSfp (Dictyostelium discoideum, UniProt Q54MI2); experiment: as above; conditions: labelled compound; 5-45 uM; 20 uM enzyme; 54 uM mycobacterial PKS2; 12.5 mM MgCl2, Tris-Cl pH 8.0, 30 C (gel-binding assay); only kcat/Km in text
T2 construct: gene DDB_G0285927; full gene (2 exons) in pET28a, N-terminal His6 tag, E. coli BL21(DE3); 34 kDa
T2 sequence (Q54MI2 entry or part of it): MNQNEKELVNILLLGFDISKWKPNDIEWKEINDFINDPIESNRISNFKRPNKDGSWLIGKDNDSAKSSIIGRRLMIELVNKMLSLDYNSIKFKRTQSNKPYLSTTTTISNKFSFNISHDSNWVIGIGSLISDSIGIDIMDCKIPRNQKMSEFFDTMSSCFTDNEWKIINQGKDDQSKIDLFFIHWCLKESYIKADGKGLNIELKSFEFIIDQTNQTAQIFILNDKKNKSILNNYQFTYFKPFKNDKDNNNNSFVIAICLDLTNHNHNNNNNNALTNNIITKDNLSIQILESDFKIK

DiSfp [3] = molecular target: T2, DiSfp; experiment: HPLC and MALDI-TOF of holo-ACP formation; conditions: 250 uM CoA; 54 uM apo DiPKS16 ACP; 12.5 mM MgCl2, Tris-Cl pH 8.0, 37 C
DiAcpS [4] = molecular target: T1, DiAcpS; experiment: HPLC and MALDI-TOF of holo-ACP formation; conditions: 250 uM CoA; 54 uM apo-ACP (Rv1344 or Dictyostelium stand-alone ACP); 12.5 mM MgCl2, Tris-Cl pH 8.0, 37 C

Structure (SMILES)	gel-based radiolabel transfer to apo-ACP, phosphorimager (DiAcpS [1])	gel-based radiolabel transfer to apo-ACP, phosphorimager (DiSfp [2])	HPLC and MALDI-TOF of holo-ACP formation (DiSfp [3])	HPLC and MALDI-TOF of holo-ACP formation (DiAcpS [4])
CC(=O)SCCNC(=O)CCNC(=O)[C@H](O)C(C)(C)COP(=O)(O)OP(=O)(O)OC[C@H]1O[C@@H](n2cnc3c(N)ncnc32)[C@H](O)[C@@H]1OP(=O)(O)O [acetyl CoA]	Kinetics of DiAcpS with the ACP was determined by varying the concentrations of acetyl CoA	phosphopantetheinylation only by DiSfp and no activity could be observed for DiAcpS	–	–
CC(C)(COP(=O)(O)OP(=O)(O)OC[C@H]1O[C@@H](n2cnc3c(N)ncnc32)[C@H](O)[C@@H]1OP(=O)(O)O)[C@@H](O)C(=O)NCCC(=O)NCCS [coenzyme A]	–	–	DiSfp resulted in a shift of ACP retention time on reverse-phase column	DiAcpS mediated conversion of apo- to holo-ACP resulted in shift in the retention time

— PMC3171403, “Two Functionally Distinctive Phosphopantetheinyl Transferases from Amoeba Dictyostelium discoideum” (PLoS ONE, 2011)
